The series is described as follows: Solubility Method (cooling/heating cycles, % transmittance, visual precipitate check). It counts as physicochemical. The conditions noted are these: SLT:SMLT 10.5:1, co-surfactant 1 % or 4 %, pH 5.2. The source says: This method can be used to determine the solubility characteristics of a material (e.g., an acyl taurate) in a composition. The method uses heating and cooling cycles to simulate environmental conditions commonly experienced by a personal care product and accelerate the processes that can lead to product instability.
The test composition (e.g., an aqueous surfactant composition consisting of an acyl taurate surfactant and an N-alkyl acyl taurate surfactant and/or a co-surfactant, and/or a cationic polymer and water) is placed in a closed container to prevent evaporation and heated at 40° C. for a minimum of 30 minutes or until the composition is visually clear & free of precipitates. One mL of the test solution is added to a Crystal-16 vial, closed with a basic cap and placed into a Technobis Crystallization Systems Crystal16® Model 2.2 or equivalent. The % transmittance readings are set to record 1 measurement every 300 seconds. The vials are cooled to 5° C. at a rate of 0.25° C./min and held at 5° C. for 8 hours (cooling cycle). The vials are then heated to 20° C. at a rate of 0.25° C./min and held at 20° C. for 8 hours (heating cycle). […] When the final % T recorded at the end of the heating cycle is greater than or equal to 90% and no precipitate is observed the sample is considered soluble.

From patent US20240299285A1, “PERSONAL CARE COMPOSITION” (The Procter & Gamble Company, priority 2023, published 2024) come the findings set out here.

With cocamidopropyl hydroxysultaine [CAPHS], the “effect of co-surfactant on acyl taurate (SLT) solubility” value was “did not provide the desired solubility”.

Take sodium lauroamphoacetate: the “effect of co-surfactant on acyl taurate (SLT) solubility” value was “did not provide the desired solubility”.
